Assay results taken from the supplement of paper PMC10307832.

Key:
Assay in all cases: relative viability (nuclei count vs DMSO), 5 days (fraction); higher = more cells survive
Seliciclib + Crizotinib = compound: CC[C@H](CO)Nc1nc(NCc2ccccc2)c2ncn(C(C)C)c2n1 [Seliciclib] + C[C@@H](Oc1cc(-c2cnn(C3CCNCC3)c2)cnc1N)c1c(Cl)ccc(F)c1Cl [Crizotinib] (partner 1 µM)
How it was run: (§1)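 For relative viability, nuclei counts in treated wells were divided by those in vehicle wells. Lung cancer cell lines had been pin-tool dosed in 1536-well plates the day after seeding and cultured for 5 days, then fixed and stained in one step (final 0.05% Triton X-100, 1% formaldehyde, 1 ug/ml Hoechst) and imaged at 4×. Doses were one drug alone or a fixed anchor-drug dose plus five library-drug doses (not always all listed) in √10 steps, and values are duplicate-plate medians.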

Seliciclib + Palbociclib = compound: CC[C@H](CO)Nc1nc(NCc2ccccc2)c2ncn(C(C)C)c2n1 [Seliciclib] + CC(=O)c1c(C)c2cnc(Nc3ccc(N4CCNCC4)cn3)nc2n(C2CCCC2)c1=O [Palbociclib] (partner 0.5 µM)
How it was run: as §1

Seliciclib + AZD7762 = compound: CC[C@H](CO)Nc1nc(NCc2ccccc2)c2ncn(C(C)C)c2n1 [Seliciclib] + NC(=O)Nc1cc(-c2cccc(F)c2)sc1C(=O)N[C@H]1CCCNC1 [AZD7762] (partner 0.2 µM)
How it was run: as §1

Seliciclib + Vorinostat = compound: CC[C@H](CO)Nc1nc(NCc2ccccc2)c2ncn(C(C)C)c2n1 [Seliciclib] + O=C(CCCCCCC(=O)Nc1ccccc1)NO [Vorinostat] (partner 1 µM)
How it was run: as §1

Cell Line	relative viability (Seliciclib + Crizotinib; first compound 0.08 µM)	relative viability (Seliciclib + Crizotinib; first compound 0.253 µM)	relative viability (Seliciclib + Crizotinib; first compound 0.8 µM)	relative viability (Seliciclib + Crizotinib; first compound 2.53 µM)	relative viability (Seliciclib + Crizotinib; first compound 8 µM)	relative viability (Seliciclib + Palbociclib; first compound 0.08 µM)	relative viability (Seliciclib + Palbociclib; first compound 0.253 µM)	relative viability (Seliciclib + Palbociclib; first compound 0.8 µM)	relative viability (Seliciclib + Palbociclib; first compound 2.53 µM)	relative viability (Seliciclib + Palbociclib; first compound 8 µM)	relative viability (Seliciclib + AZD7762; first compound 0.08 µM)	relative viability (Seliciclib + AZD7762; first compound 0.253 µM)	relative viability (Seliciclib + AZD7762; first compound 0.8 µM)	relative viability (Seliciclib + AZD7762; first compound 2.53 µM)	relative viability (Seliciclib + AZD7762; first compound 8 µM)	relative viability (Seliciclib + Vorinostat; first compound 0.08 µM)	relative viability (Seliciclib + Vorinostat; first compound 0.253 µM)	relative viability (Seliciclib + Vorinostat; first compound 0.8 µM)	relative viability (Seliciclib + Vorinostat; first compound 2.53 µM)	relative viability (Seliciclib + Vorinostat; first compound 8 µM)
HCC-366	0.477	0.418	0.497	0.946	0.354	0.35	0.272	0.345	0.328	0.166	0.291	0.274	0.388	0.409	0.481	0.317	0.467	0.377	0.212	0.164
HCC-827	0.909	0.914	0.911	0.931	0.839	0.486	0.493	0.456	0.39	0.231	0.211	0.19	0.217	0.209	0.172	0.845	0.951	0.912	0.77	0.756
IA-LM	0.596	1.17	0.92	0.906	0.622	–	–	–	–	–	–	–	–	–	–	0.895	0.984	0.848	0.935	0.867
NCI-H520	0.85	0.552	0.638	0.921	0.589	0.237	0.187	0.17	0.189	0.203	–	–	–	–	–	0.704	0.635	0.802	0.725	0.632
NCI-H522	–	–	–	–	–	0.913	1.01	0.972	0.909	0.87	0.862	0.717	0.863	0.952	0.873	0.854	0.84	1.01	0.881	0.744
NCI-H596	0.959	0.759	0.981	1.05	0.988	–	–	–	–	–	1.12	–	1.17	1.19	0.993	0.635	–	0.56	0.506	0.47
NCI-H661	0.98	1.12	0.939	–	0.894	0.396	0.401	0.359	0.286	0.292	–	–	–	–	–	0.721	0.918	0.748	0.703	0.565
NCI-H1299	0.983	1.07	0.935	0.993	0.943	–	–	–	–	–	–	–	–	–	–	–	–	–	–	–
NCI-H1395	–	–	–	–	–	0.596	0.49	0.604	–	0.523	0.41	0.436	0.419	–	0.533	0.83	0.597	0.702	–	0.631
NCI-H1563	0.832	0.73	0.889	0.899	0.836	–	–	–	–	–	–	–	–	–	–	–	–	–	–	–
NCI-H1648	–	–	–	–	–	0.259	0.332	0.308	0.231	0.169	0.775	1.06	0.758	0.826	0.71	0.519	0.909	0.417	0.365	0.373
NCI-H1650	0.885	1.12	0.924	0.847	0.607	0.369	0.317	0.332	0.353	0.216	–	–	–	–	–	0.474	0.511	0.558	0.526	0.326
NCI-H1703	0.643	0.609	0.563	0.635	0.556	–	–	–	–	–	0.132	0.147	0.135	0.126	0.111	–	–	–	–	–
